Measurements: PubChem BioAssay AID493139 (Sanford-Burnham Center for Chemical Genomics, 2011)
Activity calls are given as the source filed them. How the calls were made is not given here.

target: Alkaline phosphatase, germ cell type (Homo sapiens) (UniProt P10696); test: effect of analogs on PLAP-like activity, SAR follow-up, selectivity assay for mouse IAP activator project, biochemical, human placental-like ALPPL2 isozyme (AID 493139); conditions: purified human placental-like alkaline phosphatase, enzymatic activity
Sequence (P10696 whole entry, looked up): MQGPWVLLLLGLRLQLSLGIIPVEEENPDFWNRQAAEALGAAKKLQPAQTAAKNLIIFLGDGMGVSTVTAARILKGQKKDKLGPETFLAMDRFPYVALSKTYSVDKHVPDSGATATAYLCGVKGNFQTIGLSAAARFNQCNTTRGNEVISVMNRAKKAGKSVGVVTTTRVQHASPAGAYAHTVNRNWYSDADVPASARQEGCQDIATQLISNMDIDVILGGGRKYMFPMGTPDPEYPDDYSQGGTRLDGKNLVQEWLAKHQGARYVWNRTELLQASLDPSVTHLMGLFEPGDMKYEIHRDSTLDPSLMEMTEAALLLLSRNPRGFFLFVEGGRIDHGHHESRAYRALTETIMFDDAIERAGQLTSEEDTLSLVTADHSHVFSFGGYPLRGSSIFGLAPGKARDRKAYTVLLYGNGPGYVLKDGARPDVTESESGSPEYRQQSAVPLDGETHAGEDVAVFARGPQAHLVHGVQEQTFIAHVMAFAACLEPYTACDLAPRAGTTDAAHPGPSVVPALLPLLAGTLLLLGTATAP

SMILES	IC50 (inhibition of PLAP activity)
CC(C)NC(=O)CSc1sc2c(O)cc(=O)[nH]c2c1C#N	> 100 µM (inactive)
N#Cc1cccc(NC(=O)CSc2sc3c(O)cc(=O)[nH]c3c2C#N)c1	> 100 µM (inactive)
O=C(CN1C(=O)/C(=C/c2ccco2)SC1=S)NC1C=CS(=O)(=O)C1 (stereo not drawn)	28.5 µM
COC(=O)NNC(=O)c1cc(OC)c(OC)c(OC)c1	> 100 µM (inactive)
Cc1ccc(Cl)cc1NC(=O)CSc1sc2c(O)cc(=O)[nH]c2c1C#N	> 100 µM (inactive)
N#Cc1c(SCC(=O)Nc2nc3ccc(Br)cc3s2)sc2c(O)cc(=O)[nH]c12	> 100 µM (inactive)
COc1cc([N+](=O)[O-])ccc1NC(=S)NCCC(c1ccccc1)c1ccccc1	> 100 µM (inactive)
N#Cc1c(SCC(=O)Nc2ccc(C(F)(F)F)cc2)sc2c(O)cc(=O)[nH]c12	> 100 µM (inactive)
COc1cccc(NC(=O)CN(C)S(=O)(=O)c2ccc3[nH]c(=O)oc3c2)c1	> 100 µM (inactive)
O=C(CCNS(=O)(=O)c1ccc2[nH]c(=O)oc2c1)Nc1ccccc1	> 100 µM (inactive)
Cc1ccc(/C=N/NC(=O)c2cc(O)c(O)c(O)c2)cc1	> 100 µM (inactive)
S=C(NCCC(c1ccccc1)c1ccccc1)Nc1ccc(Cl)cc1Cl	72.1 µM
O=C(N/N=C/C1CC=CCC1)c1cc(O)c(O)c(O)c1 (stereo not drawn)	> 100 µM (inactive)
NS(=O)(=O)c1ccc(-c2ccc(/C=C3\SC(=S)N(C4CCS(=O)(=O)C4)C3=O)o2)cc1 (stereo not drawn)	> 100 µM (inactive)
N#Cc1cccc(NC(=O)CCNS(=O)(=O)c2ccc3[nH]c(=O)oc3c2)c1	> 100 µM (inactive)
N#Cc1c(SCC(=O)Nc2nc3ccccc3s2)sc2c(O)cc(=O)[nH]c12	> 100 µM (inactive)
Cc1ccc(NC(=O)CCNS(=O)(=O)c2ccc3[nH]c(=O)oc3c2)cc1	> 100 µM (inactive)
CC(C(=O)N(C)C1CCS(=O)(=O)C1)N1C(=O)/C(=C/c2ccco2)SC1=S (stereo not drawn)	> 100 µM (inactive)
COc1cc(Cl)c(C)cc1NC(=O)CSc1sc2c(O)cc(=O)[nH]c2c1C#N	> 100 µM (inactive)
COc1ccc(NC(=S)NCCC(c2ccccc2)c2ccccc2)cc1	40.7 µM
COc1cc(C(=O)NN=Cc2ccccn2)cc(OC)c1OC	31.3 µM

SMILES	IC50 (inhibition of PLAP activity)
CCN(C(=O)C(C)N1C(=O)/C(=C/c2ccco2)SC1=S)C1CCS(=O)(=O)C1 (stereo not drawn)	> 100 µM (inactive)
CCOc1ccc2nc(NC(=O)CN(C)S(=O)(=O)c3ccc4[nH]c(=O)oc4c3)sc2c1	> 100 µM (inactive)
O=C(CN1C(=O)/C(=C\c2ccco2)SC1=S)Nc1ccc(O)cc1C(=O)O	> 100 µM (inactive)
CCCSc1nnc(NC(=O)CSc2sc3c(O)cc(=O)[nH]c3c2C#N)s1	> 100 µM (inactive)
COc1ccccc1NC(=O)CCNS(=O)(=O)c1ccc2[nH]c(=O)oc2c1	> 100 µM (inactive)
CC(C(=O)Nc1ccc(C(=O)O)cc1)N1C(=O)/C(=C\c2ccco2)SC1=S (stereo not drawn)	21.9 µM
Cc1cc(=O)oc2cc(NC(=S)NCCC(c3ccccc3)c3ccccc3)ccc12	> 100 µM (inactive)
O=[N+]([O-])c1ccc(NC(=S)NCCC(c2ccccc2)c2ccccc2)cc1	> 100 µM (inactive)
CC(C(=O)NCCc1ccc(O)c(O)c1)N1C(=O)/C(=C\c2ccco2)SC1=S (stereo not drawn)	> 100 µM (inactive)
N#Cc1c(SCC(=O)Nc2cccc(F)c2)sc2c(O)cc(=O)[nH]c12	> 100 µM (inactive)
O=C(NCCc1ccc(Cl)cc1)C1CCCN(S(=O)(=O)c2ccc3[nH]c(=O)oc3c2)C1 (stereo not drawn)	> 100 µM (inactive)
O=C(CCN1C(=O)/C(=C\c2ccco2)SC1=S)Nc1ccc(C(=O)O)c(O)c1	> 100 µM (inactive)
O=C(NN=Cc1cccnc1)c1cc(O)c(O)c(O)c1	> 100 µM (inactive)
N#Cc1c(SCC(=O)Nc2ccc(Cl)cc2Cl)sc2c(O)cc(=O)[nH]c12	> 100 µM (inactive)
COc1cc(C(=O)NNc2nc3cc4c(cc3s2)OCO4)cc(OC)c1OC	15.3 µM
O=C(CN1C(=O)/C(=C/c2ccco2)SC1=S)Nc1ccc(O)c(C(=O)O)c1	27 µM
CCN(CC)C(=O)CSc1sc2c(O)cc(=O)[nH]c2c1C#N	> 100 µM (inactive)
CSc1cccc(NC(=O)CCNS(=O)(=O)c2ccc3[nH]c(=O)oc3c2)c1	> 100 µM (inactive)
O=C(CCCN1C(=O)/C(=C/c2ccco2)SC1=S)Nc1ccccc1	> 100 µM (inactive)
N#Cc1c(SCC(=O)Nc2nncs2)sc2c(O)cc(=O)[nH]c12	> 100 µM (inactive)
C/C(=N\NC(=O)c1cc(O)c(O)c(O)c1)c1ccncc1	> 100 µM (inactive)

SMILES	IC50 (inhibition of PLAP activity)
O=C(CCNS(=O)(=O)c1ccc2[nH]c(=O)oc2c1)Nc1cccc(-c2ccno2)c1	> 100 µM (inactive)
O=C(N/N=C/c1ccc(F)cc1)c1cc(O)c(O)c(O)c1	> 100 µM (inactive)
COc1cc(C(=O)NNC(=O)c2n[nH]c3ccccc23)cc(OC)c1OC	21.9 µM
O=C(CCN1C(=O)/C(=C/c2ccco2)SC1=S)Nc1ccc(C(=O)O)c(O)c1	> 100 µM (inactive)
COc1ccc(NC(=O)C(CC(C)C)NS(=O)(=O)c2ccc3[nH]c(=O)oc3c2)cc1 (stereo not drawn)	> 100 µM (inactive)
N#Cc1c(SCC(=O)NCc2ccc3c(c2)OCO3)sc2c(O)cc(=O)[nH]c12	> 100 µM (inactive)
O=C(CN1C(=O)/C(=C\c2ccco2)SC1=S)Nc1ccccc1C(=O)O	> 100 µM (inactive)
COc1ccc(NC(=O)CSc2sc3c(O)cc(=O)[nH]c3c2C#N)c(OC)c1	> 100 µM (inactive)
O=C(CN1C(=O)/C(=C/c2ccco2)SC1=S)Nc1ccc2nccnc2c1	> 100 µM (inactive)
Cc1cc(NC(=O)CSc2sc3c(O)cc(=O)[nH]c3c2C#N)ccc1Br	> 100 µM (inactive)
O=C(CN1C(=O)/C(=C\c2ccco2)SC1=S)Nc1ccc(C(=O)O)cc1	> 100 µM (inactive)
O=C(CN1C(=O)/C(=C/c2ccco2)SC1=S)Nc1ccc(C(=O)O)c(O)c1	78.4 µM
O=C(CN1C(=O)/C(=C/c2ccco2)SC1=S)NC1CCS(=O)(=O)C1 (stereo not drawn)	> 100 µM (inactive)
O=C1/C(=C/c2ccco2)SC(=S)N1C1CCS(=O)(=O)C1 (stereo not drawn)	17.9 µM
O=C(N/N=C/c1ccccc1F)c1cc(O)c(O)c(O)c1	> 100 µM (inactive)
CC(C(=O)Nc1ccccc1C(=O)O)N1C(=O)/C(=C\c2ccco2)SC1=S (stereo not drawn)	> 100 µM (inactive)
O=C(O)CC(C(=O)O)N1C(=O)/C(=C/c2ccc(-c3nc4ccccc4s3)o2)SC1=S (stereo not drawn)	> 100 µM (inactive)
O=C(CN1C(=O)/C(=C/c2ccco2)SC1=S)NCCc1ccc(O)cc1	> 100 µM (inactive)
O=C(C1CCN(S(=O)(=O)c2ccc3[nH]c(=O)oc3c2)CC1)N1CC=C(c2ccccc2)CC1	> 100 µM (inactive)
COc1ccccc1NC(=O)CSc1sc2c(O)cc(=O)[nH]c2c1C#N	> 100 µM (inactive)
Cc1ccc(NC(=O)CCNS(=O)(=O)c2ccc3[nH]c(=O)oc3c2)c(C)c1	> 100 µM (inactive)

SMILES	IC50 (inhibition of PLAP activity)
CCOC(=O)NC(=O)CSc1sc2c(O)cc(=O)[nH]c2c1C#N	> 100 µM (inactive)
COc1ccc(N2CCN(C(=O)CN3C(=O)/C(=C\c4ccco4)SC3=S)CC2)cc1	> 100 µM (inactive)
CCSc1nnc(NC(=O)CSc2sc3c(O)cc(=O)[nH]c3c2C#N)s1	> 100 µM (inactive)
COc1ccc(OC)c(NC(=O)CCNS(=O)(=O)c2ccc3[nH]c(=O)oc3c2)c1	> 100 µM (inactive)
COc1cc(C(=O)NNC(=S)NC(=O)c2ccccc2C)cc(OC)c1OC	35.7 µM
O=C(CCCN1C(=O)/C(=C\c2ccco2)SC1=S)Nc1ccc(O)cc1C(=O)O	> 100 µM (inactive)
COc1ccccc1CNC(=O)CCNS(=O)(=O)c1ccc2[nH]c(=O)oc2c1	> 100 µM (inactive)
Cc1ccc(C)c(NC(=O)CCNS(=O)(=O)c2ccc3[nH]c(=O)oc3c2)c1	> 100 µM (inactive)
COC(=O)c1ccc(C)c(NC(=O)CSc2sc3c(O)cc(=O)[nH]c3c2C#N)c1	> 100 µM (inactive)
N#Cc1c(SCC(=O)Nc2ccccc2C(F)(F)F)sc2c(O)cc(=O)[nH]c12	> 100 µM (inactive)
CCc1nnc(NC(=O)CSc2sc3c(O)cc(=O)[nH]c3c2C#N)s1	> 100 µM (inactive)
COc1ccc(CNC(=O)CSc2sc3c(O)cc(=O)[nH]c3c2C#N)cc1	> 100 µM (inactive)
CC(C(=O)Nc1ccc(C(=O)O)c(O)c1)N1C(=O)/C(=C\c2ccco2)SC1=S (stereo not drawn)	32.6 µM
CCOC(=O)N1CCN(S(=O)(=O)c2ccc3[nH]c(=O)oc3c2)CC1	> 100 µM (inactive)
CCOc1ccccc1CNC(=O)CCNS(=O)(=O)c1ccc2[nH]c(=O)oc2c1	> 100 µM (inactive)
O=C(N/N=C/c1ccsc1)c1cc(O)c(O)c(O)c1	> 100 µM (inactive)
O=C(CN1C(=O)/C(=C\c2ccco2)SC1=S)Nc1cccc(C(=O)O)c1	> 100 µM (inactive)
FC(F)(F)c1cccc(NC(=S)NCCC(c2ccccc2)c2ccccc2)c1	63.5 µM
O=C(CN1C(=O)/C(=C/c2ccco2)SC1=S)Nc1cccc(C(=O)O)c1	> 100 µM (inactive)
COc1cccc(CNC(=O)CCNS(=O)(=O)c2ccc3[nH]c(=O)oc3c2)c1	> 100 µM (inactive)
